Experimental data: patent US4543408A, “Stable S-adenosylmethionine salts, the process for their preparation, and therapeutic compositions which contain them as active principle” (Bioresearch S.p.A., priority 1981, dated 1985)

Experiments:
[1] = format: physicochemical; conditions: solid salt storage; for degradation at 45° C. after 60 days: 1440 h; for degradation at 45° C. after 120 days: 2880 h; for degradation at 45° C. after 180 days: 4320 h; for degradation at 45° C. after 240 days: 5760 h; for degradation at 45° C. after 360 days: 8640 h
Procedure: Stability tests were carried out on the salts prepared in the described manner, by keeping the product in an oven temperature controlled at 45° C. and determining the percentage of residual salt at fixed times. The tests were carried out in comparison with SAM.nHCl salts in which n=1,2 and 3, prepared by the known method (U.S. Pat. No. 2,969,353), and in comparison with SAM.nH2 SO4 salts in which n=0.5,1 and 1.5, also prepared by the known method (West German patent application No. 1,803,978).
The following tables show the percentages of decomposed salt at the times indicated:
Analytical conditions used:
SAM retention time: about 400 seconds.

Residual moisture = format: physicochemical
physchem = conditions: water
[2] = Wide pharmacological screening trial; format: in vivo; conditions: independent of the anion bonded to the SAM
Description: It was established that the activity of the new salts depends substantially on the capacity of the SAM^+ ion released in the organism to act as a donor of methyl groups, as the natural substrate of a large number of transmethylase enzymes which catalyse fundamental reactions of the lipid, protide and glucide metabolism.

[3] = prior-art salts; cited from earlier work
[4] = Tables 1-4, salts lyophilised without support

Row | Structure (SMILES) | degradation at 45° C. after 60 days [1] | degradation at 45° C. after 120 days [1] | degradation at 45° C. after 180 days [1] | degradation at 45° C. after 240 days [1] | degradation at 45° C. after 360 days [1] | residual moisture (Residual moisture; [4]) | further results
1 | C[S+](CCC(N)C(=O)[O-])CC1OC(n2cnc3c(N)ncnc32)C(O)C1O (stereo not drawn) [SAM.1.5H2 SO4.nHCl, n=1] | 5% | 10% | 14% | 17% | 20% | 1% | –
2 | C[S+](CCC(N)C(=O)[O-])CC1OC(n2cnc3c(N)ncnc32)C(O)C1O (stereo not drawn) [SAM.1.5H2 SO4.nHCl, n=2] | – | 1.5% | 3% | 4.5% | 5% | 1.5% | residual moisture (Residual moisture; Tables 1-4, salts lyophilised without support, listed as SAM.2HCl.nH2 SO4, n=1.5): 1.5%
3 | C[S+](CCC(N)C(=O)[O-])CC1OC(n2cnc3c(N)ncnc32)C(O)C1O (stereo not drawn) [SAM.1.5H2 SO4.nHCl, n=3] | 5% | 10% | 14% | 17% | 20% | 2% | –
4 | C[S+](CCC(N)C(=O)[O-])CC1OC(n2cnc3c(N)ncnc32)C(O)C1O (stereo not drawn) [SAM.2.5H2 SO4] | – | 1.5% | 3% | 4.5% | 5% | – | residual moisture (Residual moisture; Tables 1-4, salts lyophilised without support, listed as SAM.nH2 SO4, n=3.5): 1.5%; solubility (physchem): > 200 mg/mL
5 | C[S+](CCC(N)C(=O)[O-])CC1OC(n2cnc3c(N)ncnc32)C(O)C1O (stereo not drawn) [SAM.2H2 SO4.0.4H2 O] | 5% | 10% | 14% | 17% | 20% | – | residual moisture (Residual moisture; Tables 1-4, salts lyophilised without support, listed as SAM.nH2 SO4, n=2): 1%
6 | C[S+](CCC(N)C(=O)[O-])CC1OC(n2cnc3c(N)ncnc32)C(O)C1O (stereo not drawn) [SAM.2HCl.nH2 SO4, n=0.5, reference compound] | 30% | 60% | 80% | 100% | 100% | 0.8% | –
7 | C[S+](CCC(N)C(=O)[O-])CC1OC(n2cnc3c(N)ncnc32)C(O)C1O (stereo not drawn) [SAM.2HCl.nH2 SO4, n=1] | 5% | 10% | 14% | 17% | 20% | 1% | –
8 | C[S+](CCC(N)C(=O)[O-])CC1OC(n2cnc3c(N)ncnc32)C(O)C1O (stereo not drawn) [SAM.2HCl.nH2 SO4, n=2] | 5% | 10% | 14% | 17% | 20% | 2% | –
9 | C[S+](CCC(N)C(=O)[O-])CC1OC(n2cnc3c(N)ncnc32)C(O)C1O (stereo not drawn) [SAM.3H2 SO4.0.7H2 O] | 5% | 10% | 14% | 17% | 20% | – | residual moisture (Residual moisture; Tables 1-4, salts lyophilised without support, listed as SAM.nH2 SO4, n=3): 2%
10 | C[S+](CCC(N)C(=O)[O-])CC1OC(n2cnc3c(N)ncnc32)C(O)C1O (stereo not drawn) [SAM.4HCl.0.4H2 O] | 5% | 10% | 14% | 17% | 20% | – | residual moisture (Residual moisture; Tables 1-4, salts lyophilised without support, listed as SAM.nHCl, n=4): 1%
11 | C[S+](CCC(N)C(=O)[O-])CC1OC(n2cnc3c(N)ncnc32)C(O)C1O (stereo not drawn) [SAM.5HCl] | – | 1.5% | 3% | 4.5% | 5% | – | residual moisture (Residual moisture; Tables 1-4, salts lyophilised without support, listed as SAM.nHCl, n=5): 1.5%; residual moisture (Residual moisture; lyophilised without support, with mannitol or with Aerosil): 1.5%; activity and toxicity characteristics [2]: highly interesting activity and toxicity characteristics
12 | C[S+](CCC(N)C(=O)[O-])CC1OC(n2cnc3c(N)ncnc32)C(O)C1O (stereo not drawn) [SAM.6HCl.0.7H2 O] | 5% | 10% | 14% | 17% | 20% | – | residual moisture (Residual moisture; Tables 1-4, salts lyophilised without support, listed as SAM.nHCl, n=6): 2%
13 | C[S+](CCC(N)C(=O)[O-])CC1OC(n2cnc3c(N)ncnc32)C(O)C1O (stereo not drawn) [SAM.nH2 SO4, n=0.5, reference compound] | 100% | 100% | 100% | 100% | 100% | 0.2% | –
14 | C[S+](CCC(N)C(=O)[O-])CC1OC(n2cnc3c(N)ncnc32)C(O)C1O (stereo not drawn) [SAM.nH2 SO4, n=1, reference compound] | 80% | 100% | 100% | 100% | 100% | 0.5% | –
15 | C[S+](CCC(N)C(=O)[O-])CC1OC(n2cnc3c(N)ncnc32)C(O)C1O (stereo not drawn) [SAM.nH2 SO4, n=1.5, reference compound] | 30% | 60% | 80% | 100% | 100% | 0.8% | –
16 | C[S+](CCC(N)C(=O)[O-])CC1OC(n2cnc3c(N)ncnc32)C(O)C1O (stereo not drawn) [SAM.nHCl, n=1, reference compound] | 100% | 100% | 100% | 100% | 100% | 0.2% | –
17 | C[S+](CCC(N)C(=O)[O-])CC1OC(n2cnc3c(N)ncnc32)C(O)C1O (stereo not drawn) [SAM.nHCl, n=2, reference compound] | 80% | 100% | 100% | 100% | 100% | 0.5% | –
18 | C[S+](CCC(N)C(=O)[O-])CC1OC(n2cnc3c(N)ncnc32)C(O)C1O (stereo not drawn) [SAM.nHCl, n=3, reference compound] | 30% | 60% | 80% | 100% | 100% | 0.8% | –
19 | C[S+](CCC(N)C(=O)[O-])CC1OC(n2cnc3c(N)ncnc32)C(O)C1O (stereo not drawn) [disulphatediparatoluene sulphonate, SAM disulphatediparatoluene sulphonate] | – | – | – | – | – | – | temperature up to which the salt is stable [3]: up to 45 °C
20 | C[S+](CCC(N)C(=O)[O-])CC1OC(n2cnc3c(N)ncnc32)C(O)C1O (stereo not drawn) [triparatoluene sulphonate, SAM triparatoluene sulphonate] | – | – | – | – | – | – | temperature up to which the salt is stable [3]: up to 25 °C
